Measured values taken from patent publication US20240424107A1, “PREPARATION OF SITE-SPECIFIC POLYPEPTIDE CONJUGATES” (POSTECH RESEARCH AND BUSINESS DEVELOPMENT FOUNDATION, priority 2023, published 2024).

Target: T1, Human-alpha thrombin (Homo sapiens, UniProt P00734)
T1 construct: Human-alpha thrombin and its well-known aptamers, HD1
Experiment: Covalent conjugation of oxanine-containing aptamer to thrombin, conversion rate over time (SDS-PAGE/electrophoresis)
Assay type: biochemical
Conditions: thrombin 1.25 μM, HEPES pH 8.4, 37° C., FIG. 3
Procedure: Human-alpha thrombin and its well-known aptamers, HD1 (15-mer length of aptamer that binds to exosite I of thrombin; 5′-[…]-3′; SEQ ID NO: 1) and HD2 (29-mer length of aptamer that binds to exosite II of thrombin; 5′-[…]-3′; SEQ ID NO: 2) were used. Each aptamer labeled with fluorescent dye at 5′-terminus and 10 dOTPs at 3′-terminus was prepared (See Example 1-1) and mixed with thrombin. Specifically, thrombin (1.25 μM), NaCl (100 mM), MgCl2 (5 mM), KCl (5 mM), Tween-20 (0.01% v/v), and oxanine-inserted HD1 (1 equiv. relative to thrombin) and HD2 (2 equiv. relative to thrombin) in HEPES (50 mM pH 8.4) were mixed at 37° C. for 1 day.
Whether the aptamer brings oxanine close to the amine group of the target protein, enabling proximity-enhanced covalent bond formation, was monitored with SDS-PAGE (protein bands) and electrophoresis (DNA bands). As a comparison group, aptamers HD1 and HD2 without oxanine introduced, or random DNA (not aptamer) with oxanine introduced, were used, and an untreated control group without any treatment with thrombin was also used for comparison.

Substance: HD1: 15-mer thrombin exosite I aptamer 5′-GGTTGGTGTGGTTGG-3′ with fluorescent dye at 5′-terminus and 10 dOTPs (oxanine) at 3′-terminus (DNA, backbone not given here; 5' fluorescent dye, 3' tail of ten oxanine deoxynucleotides)
- time to reach 50% modification rate (conversion of aptamer to aptamer-thrombin conjugate): ≤ 12.6 min

Substance: HD22: 29-mer thrombin exosite II aptamer 5′-AGTCCGTGGTAGGGCAGGTTGGGGTGACT-3′ with fluorescent dye at 5′-terminus and 10 dOTPs (oxanine) at 3′-terminus (DNA, backbone not given here; 5' fluorescent dye, 3' tail of ten oxanine deoxynucleotides)
- time to reach 50% modification rate (conversion of aptamer to aptamer-thrombin conjugate): ≤ 101 min
